Assay results as given in patent US5916881A, “High trehalose content syrup” (Kabushiki Kaisha Hayashibara Seibutsu Kagaku Kenkyujo, priority 1996, dated 1999).
Values after ≈ are worked out from the molar mass of the structure shown. “Also recorded” adds a separate entry of the source. Where two headings read alike, the source gives them in different places. Each block holds one compound with its values, some of them ahead of it.

Key:
Format in all cases: physicochemical
[1] = Influence of ambient temperature on the water solubility of trehalose (Experiment 1); conditions: for solubility thermodynamic: water, 5 °C, saturated solution
Method: The water solubility of trehalose at ambient temperature was studied by placing in a glass beaker 10 parts by weight of water and 20 parts by weight of crystalline trehalose hydrate, allowing the solution to stand at 5, 10, 15, 20, 25, 30 or 40° C. while stirring, sampling the solution, filtering the sample, and measuring the trehalose content in the filtrate to determine the solubility of trehalose in 100 g water at each temperature, i.e., the amount (g) of trehalose, d.s.b., that dissolves in 100 g water to give a saturated solution at each temperature.

[2] = Trehalose crystallization inhibitory effect of coexisting saccharides in a trehalose syrup over the water solubility (Experiment 2); conditions: trehalose dissolved in an amount over the water solubility; summary of Table 2
Method: Trehalose was dissolved by heating in water in an amount of 1.5-times the water solubility at 10° C., and the trehalose solution was allowed to stand at a relatively-cold place for checking the trehalose crystallization inhibitory effect by saccharides. […] With this relationship, testing solutions were prepared by dissolving by heating in 100 parts by weight of water in a respective glass beaker 83 parts by weight of trehalose, and a saccharide in an amount of 10% to the trehalose, i.e., 8.3 parts by weight of the saccharide selected from the group consisting of glucose, maltose, isomaltose, lactose, maltotriose, panose, maltotetraose, sorbitol, maltitol, maltotriitol, sucrose, raffinose, erlose, saccharides such as α-glucosyltrehalose or monoglucosyltrehalose, α-maltosyltrehalose or diglucosyltrehalose, and α-maltotriosyltrehalose or triglucosyltrehalose as disclosed in Japanese Patent Kokai No.143,876/95 by the present applicant; a saccharide such as α-isomaltosyl-α-glucoside or monoglucosyltrehalose as disclosed in Japanese Patent Kokai No.217,784/96 by the same applicant; and a saccharide such as α-maltosyl-α-maltoside or diglucosyltrehalose as disclosed in Japanese Patent Application No.167,486/94 by the same applicant. Each solution was allowed to stand in a thermostatic place kept at 5, 10 or 15° C. for one week, followed by macroscopically observing the presence of trehalose crystal for evaluating the trehalose crystallization inhibitory effect by the saccharides.

[3] = Influence of the concentrations of trehalose and of mono-/diglucosyltrehalose on trehalose crystallization (Experiment 3); set-up: key to Formation of trehalose crystal: "+" means that it crystallized; "-" means that it did not
Method: The trehalose crystallization inhibitory effect was experimented by dissolving trehalose under heating conditions in water in an amount of 1.5, 2.0, 2.5, 2.8 or 3.3-times the water solubility at 10° C., dissolving in the solution other oligosaccharides having a trehalose structure within their molecules in an amount of 10, 30 or 60% to the trehalose, d.s.b, and allowing the resultant solution to stand at a relatively-low temperature.
Based on the results in Experiment 1, 1.5, 2.0, 2.5, 2.8 and 3.3-times the water solubility of trehalose in 100 parts by weight of water at 10° C. water corresponded to 83, 111, 138, 155 and 182 parts by weight of trehalose anhydride, d.s.b., respectively With this relationship, testing solutions with the composition as shown in Table 3 were prepared by dissolving under heating conditions in a respective glass beaker 100 parts by weight of water, trehalose in a prescribed part by weight, and either monoglucosyltrehalose, i.e., α-glucosyltrehalose or diglucosyltrehalose, i.e., α-maltosyltrehalose in a prescribed ratio, allowing the solution to stand in a thermostatic place kept at 5, 10 or 15° C. for checking the trehalose crystallization inhibitory effect.

Water solubility (in words) ([1]; ambient temperature, summary of Table 1): relatively-low water solubility
solubility thermodynamic ([1]; d.s.b., read-out: Amount of trehalose (g) dissolving in 100 g water): 496 mg/mL (≈ 1450 mM)
solubility thermodynamic ([1]; read-out: Trehalose concentration (%)): 332 mg/mL (≈ 970 mM)
SMILES: OC[C@H]1O[C@H](O[C@H]2O[C@H](CO)[C@@H](O)[C@H](O)[C@H]2O)[C@H](O)[C@@H](O)[C@@H]1O [Trehalose, α, α-trehalose]

Trehalose crystallization inhibitory effect (in words) [2]: specifically and effectively inhibited
Amount of trehalose, times the water solubility, beyond which crystallization of trehalose was observed ([3]; coexisting diglucosyltrehalose): exceeds 2.8 times the water solubility
Formation of trehalose crystal ([3]; water 100, trehalose 83, coexisting saccharide 8.3 parts by weight, 5° C. (1.7-times solubility)): -
Formation of trehalose crystal ([3]; water 100, trehalose 83, coexisting saccharide 8.3 parts by weight, 10° C. (1.5-times solubility)): -
Formation of trehalose crystal ([3]; water 100, trehalose 83, coexisting saccharide 8.3 parts by weight, 15° C. (1.3-times solubility)): -
Formation of trehalose crystal ([3]; water 100, trehalose 83, coexisting saccharide 25 parts by weight, 5° C. (1.7-times solubility)): -
Formation of trehalose crystal ([3]; water 100, trehalose 83, coexisting saccharide 25 parts by weight, 10° C. (1.5-times solubility)): -
Formation of trehalose crystal ([3]; water 100, trehalose 83, coexisting saccharide 25 parts by weight, 15° C. (1.3-times solubility)): -
Formation of trehalose crystal ([3]; water 100, trehalose 83, coexisting saccharide 50 parts by weight, 5° C. (1.7-times solubility)): -
Formation of trehalose crystal ([3]; water 100, trehalose 83, coexisting saccharide 50 parts by weight, 10° C. (1.5-times solubility)): -
Formation of trehalose crystal ([3]; water 100, trehalose 83, coexisting saccharide 50 parts by weight, 15° C. (1.3-times solubility)): -
Formation of trehalose crystal ([3]; water 100, trehalose 111, coexisting saccharide 11 parts by weight, 5° C. (2.2-times solubility)): -
Formation of trehalose crystal ([3]; water 100, trehalose 111, coexisting saccharide 11 parts by weight, 10° C. (2.0-times solubility)): -
Formation of trehalose crystal ([3]; water 100, trehalose 111, coexisting saccharide 11 parts by weight, 15° C. (1.8-times solubility)): -
Formation of trehalose crystal ([3]; water 100, trehalose 111, coexisting saccharide 33 parts by weight, 5° C. (2.2-times solubility)): -
Formation of trehalose crystal ([3]; water 100, trehalose 111, coexisting saccharide 33 parts by weight, 10° C. (2.0-times solubility)): -
Formation of trehalose crystal ([3]; water 100, trehalose 111, coexisting saccharide 33 parts by weight, 15° C. (1.8-times solubility)): -
Formation of trehalose crystal ([3]; water 100, trehalose 111, coexisting saccharide 66 parts by weight, 5° C. (2.2-times solubility)): -
Formation of trehalose crystal ([3]; water 100, trehalose 111, coexisting saccharide 66 parts by weight, 10° C. (2.0-times solubility)): -
Formation of trehalose crystal ([3]; water 100, trehalose 111, coexisting saccharide 66 parts by weight, 15° C. (1.8-times solubility)): -
Formation of trehalose crystal ([3]; water 100, trehalose 138, coexisting saccharide 14 parts by weight, 5° C. (2.8-times solubility)): +
Formation of trehalose crystal ([3]; water 100, trehalose 138, coexisting saccharide 14 parts by weight, 10° C. (2.5-times solubility)): -
Formation of trehalose crystal ([3]; water 100, trehalose 138, coexisting saccharide 14 parts by weight, 15° C. (2.2-times solubility)): -
Formation of trehalose crystal ([3]; water 100, trehalose 138, coexisting saccharide 42 parts by weight, 5° C. (2.8-times solubility)): +
Formation of trehalose crystal ([3]; water 100, trehalose 138, coexisting saccharide 42 parts by weight, 10° C. (2.5-times solubility)): -
Formation of trehalose crystal ([3]; water 100, trehalose 138, coexisting saccharide 42 parts by weight, 15° C. (2.2-times solubility)): -
Formation of trehalose crystal ([3]; water 100, trehalose 138, coexisting saccharide 83 parts by weight, 5° C. (2.8-times solubility)): -
Formation of trehalose crystal ([3]; water 100, trehalose 138, coexisting saccharide 83 parts by weight, 10° C. (2.5-times solubility)): -
Formation of trehalose crystal ([3]; water 100, trehalose 138, coexisting saccharide 83 parts by weight, 15° C. (2.2-times solubility)): -
Formation of trehalose crystal ([3]; water 100, trehalose 155, coexisting saccharide 16 parts by weight, 5° C. (3.1-times solubility)): +
Formation of trehalose crystal ([3]; water 100, trehalose 155, coexisting saccharide 16 parts by weight, 10° C. (2.8-times solubility)): +
Formation of trehalose crystal ([3]; water 100, trehalose 155, coexisting saccharide 16 parts by weight, 15° C. (2.5-times solubility)): -
Formation of trehalose crystal ([3]; water 100, trehalose 155, coexisting saccharide 46 parts by weight, 5° C. (3.1-times solubility)): +
Formation of trehalose crystal ([3]; water 100, trehalose 155, coexisting saccharide 46 parts by weight, 10° C. (2.8-times solubility)): +
Formation of trehalose crystal ([3]; water 100, trehalose 155, coexisting saccharide 46 parts by weight, 15° C. (2.5-times solubility)): -
Formation of trehalose crystal ([3]; water 100, trehalose 155, coexisting saccharide 93 parts by weight, 5° C. (3.1-times solubility)): +
Formation of trehalose crystal ([3]; water 100, trehalose 155, coexisting saccharide 93 parts by weight, 10° C. (2.8-times solubility)): -
Formation of trehalose crystal ([3]; water 100, trehalose 155, coexisting saccharide 93 parts by weight, 15° C. (2.5-times solubility)): -
Formation of trehalose crystal ([3]; water 100, trehalose 182, coexisting saccharide 18 parts by weight, 5° C. (3.7-times solubility)): +
Formation of trehalose crystal ([3]; water 100, trehalose 182, coexisting saccharide 18 parts by weight, 10° C. (3.3-times solubility)): +
Formation of trehalose crystal ([3]; water 100, trehalose 182, coexisting saccharide 18 parts by weight, 15° C. (3.0-times solubility)): +
Formation of trehalose crystal ([3]; water 100, trehalose 182, coexisting saccharide 55 parts by weight, 5° C. (3.7-times solubility)): +
Formation of trehalose crystal ([3]; water 100, trehalose 182, coexisting saccharide 55 parts by weight, 10° C. (3.3-times solubility)): +
Formation of trehalose crystal ([3]; water 100, trehalose 182, coexisting saccharide 55 parts by weight, 15° C. (3.0-times solubility)): +
Formation of trehalose crystal ([3]; water 100, trehalose 182, coexisting saccharide 110 parts by weight, 5° C. (3.7-times solubility)): +
Formation of trehalose crystal ([3]; water 100, trehalose 182, coexisting saccharide 110 parts by weight, 10° C. (3.3-times solubility)): +
Formation of trehalose crystal ([3]; water 100, trehalose 182, coexisting saccharide 110 parts by weight, 15° C. (3.0-times solubility)): +
SMILES: OC[C@H]1O[C@H](O[C@H]2O[C@H](CO)[C@@H](O[C@H]3O[C@H](CO)[C@@H](O[C@H]4O[C@H](CO)[C@@H](O)[C@H](O)[C@H]4O)[C@H](O)[C@H]3O)[C@H](O)[C@H]2O)[C@H](O)[C@@H](O)[C@@H]1O [α-Maltosyltrehalose, α-maltosyltrehalose]
Trehalose crystallization inhibitory effect (in words) ([3]; summary of Table 3, listed as diglucosyltrehalose): satisfactory trehalose crystallization inhibitory effect; also recorded: stronger effect
